Among the data in BindingDB's records for doi:10.1016/j.bmcl.2009.09.014 (Johnson & Johnson Pharmaceutical, 2009) are IC50 values, retold here.

Molecules are shown by their SMILES.

The assay deals with Cathepsin S (Homo sapiens, UniProt P25774). Briefly: Cathepsn S Inhibition Assay. The settings on record: pH 5; 23 °C. The procedure:
Enzyme assays were run using fluorescence resonance energy transfer-based substrates, (Aedens)[…](Dabcyl)K-amide and cathepsin S cleaves between amino acids Leu-6 and Ala-7. The fluorescence of the aedens group is quenched by the dabcyl moiety in the intact peptide. Upon cleavage by cathepsin S, the quenching is released and the fluorescence of the aedens group can be measured. The increase in fluorescence was measured on a Cytofluor II (Applied Biosystems, Foster City, CA) with an excitation filter of 360/40 nm and an emission filter of 460/40 nm. A reading was made every minute for 20 to 60 min, and the slope obtained from a linear regression of this time course was used as the reaction rate. The reaction rates were determined for different inhibitor concentrations, and the percentage of inhibition was determined by comparison with the reaction rate in the absence of inhibitor. IC50 values were determined by four parameter fits of plots of the percentage of inhibition versus inhibitor concentration using the program GraFit (Erithacus Software Ltd.).

Chain of Cathepsin S (P25774 whole entry): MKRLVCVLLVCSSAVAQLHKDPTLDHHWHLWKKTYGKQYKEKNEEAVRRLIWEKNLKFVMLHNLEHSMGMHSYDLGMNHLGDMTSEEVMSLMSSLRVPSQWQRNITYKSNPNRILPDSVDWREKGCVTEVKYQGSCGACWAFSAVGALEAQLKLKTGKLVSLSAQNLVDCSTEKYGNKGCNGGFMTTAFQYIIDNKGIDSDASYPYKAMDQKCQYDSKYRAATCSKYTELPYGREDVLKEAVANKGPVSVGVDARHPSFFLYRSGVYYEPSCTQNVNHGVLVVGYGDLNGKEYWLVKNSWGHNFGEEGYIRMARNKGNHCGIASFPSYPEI

One may read the IC50 as the concentration needed to halve the response being measured. Molecule `C#Cc1cc(-c2nn(CCCN3CCOCC3)c3c2CN(S(C)(=O)=O)CC3)ccc1Cl` [arylalkyne pyrazole-based compound, 11] had an IC50 of 7.4 µM.
For `COC(=O)C(=O)N1CCc2c(c(-c3ccc(Cl)c(C#Cc4ccc(Cl)cc4)c3)nn2CCCN2CCOCC2)C1` [arylalkyne pyrazole-based compound, 33] the value was 0.04 µM.
